In patent US20260265199A1, “CRYSTALLINE FORMS OF (R)-2-AMINO-5-(4-(2-(3,5-DIFLUOROPHENYL)-2-HYDROXYACETAMIDO)-2-METHYLPHENYL)-N-ISOPROPYLNICOTINAMIDE AND METHODS FOR USING THE SAME” (HIBERCELL, INC., priority 2023, published 2026):
Counter-ions that a name gives are not always drawn.

Tests used:
Type in all cases: physicochemical
[1] = Slurry study of Form A of the hemi-fumarate salt (XRPD of solids)
Description: XRPD patterns of samples were collected using with an X-ray diffractometer (Bruker D8 advance). The system was equipped with LynxEye detector. Samples were scanned from 3 to 40° 2θ, at a step size 0.02° 2θ. The tube voltage and current were 40 KV and 40 mA, respectively.
Slurry studies of the Form A of the hemi-fumarate salt were conducted at room temperature for four days and at 50° C. for one day. About 10 mg to 35 mg of the Form A of the hemi-fumarate salt was slurried in different solvents at RT or 50° C. for one to four days. Solid samples were collected by filtration and analyzed by XRPD (Example 1, XRPD) at a specific time. […] The overlay of XRPD patterns from the slurry study of the Form A of the hemi-fumarate salt of the compound of formula (I) is depicted in FIG. 11.

[2] = Mechanical treatment (manual grinding) of Form A of the hemi-fumarate salt
Description: Appropriate amount of the Form A of the hemi-fumarate salt was ground for about two and five minutes manually and the samples were analyzed by XRPD (Example 1, XRPD). […] The crystallinity became low after grinding for five minutes. Solubility of the Form A of the Hemi-Fumarate Salt of the Compound of Formula (I) in Biologically Relevant Media

[3] = Solubility in water and biologically relevant media (SGF, FeSSIF, FaSSIF), HPLC, pH, XRPD; conditions: 37° C.; for XRPD of the filter cake: 24 h
Description: (§1) HPLC analysis was performed with an Agilent HPLC 1260 series instrument.
The solubility of the Form A of the hemi-fumarate salt was evaluated in water and biologically relevant media, SGF, FeSSIF, and FaSSIF. About 10 mg of the sample was weighed into sample vials and then 2 mL of three bio-relevant media and water were added to each respective sample to make suspensions. All suspensions were shaken at 37° C. with 200 rpm. […] The XRPD pattern from the solubility test of the Form A of the hemi-fumarate salt of the compound of formula (I) is depicted in FIG. 12.

[4] = Physical stability under high humidity (92.5% RH); conditions: 11 days
Description: The physical stability of the Form A of the hemi-fumarate salt was evaluated under high humidity (92.5% RH) for 11 days.

[5] = Physical and chemical stability at 40° C. (75% RH) and 60° C. (XRPD, HPLC); conditions: for Physical and chemical stability / XRPD - 29 days / Purity (%) - 29 days: 29 days
Description: as §1
Appropriate amount of the Form A of the hemi-fumarate salt was placed at 40° C. (75% RH) and 60° C. for several days. The solids were analyzed by XRPD (Example 1, XRPD) and HPLC (Example 1, HPLC) at appropriate time points. The physical and chemical stabilities of the Form A of the hemi-fumarate salt was conducted at 60° C. and at 40° C. (75% RH) for 29 days. No obvious degradation occurred and no form change was observed under testing conditions. […] (75% RH) for 29 days.

[6] = Dynamic vapor sorption (DVS Intrinsic, 25° C., 0-90% RH)
Description: Moisture sorption/desorption data were collected on a DVS Intrinsic (SMS, UK). The sample was placed into a tared sample chamber and automatically weighed. The sample was dried at 40° C. until the dm/dt was less than 0.002% and cooled to 25° C. Set the instrument parameters as below. • Step time (min): 60 min • Sample temperature: 25° C. • Cycle: Full cycle • Adsorption: 0, 10, 20, 30, 40, 50, 60, 70, 80, 90 • Desorption: 80, 70, 60, 50, 40, 30, 20, 10, 0 • Save Data Rate: 5 s • Total flow rate: 200 sccm • Post experiment total flow: 200 sccm
The associated DVS isotherm plot of Form A of the hemi-fumarate salt is depicted in FIG. 10.

[7] = Slurry study of Form A of the hemi-fumarate salt (XRPD of solids); conditions: room temperature, three days (footnote *)

Cc1cc(NC(=O)[C@H](O)c2cc(F)cc(F)c2)ccc1-c1cnc(N)c(C(=O)NC(C)C)c1 [Form A of the hemi-fumarate salt, (R)-2-amino-5-(4-(2-(3,5-difluorophenyl)-2-hydroxyacetamido)-2-methylphenyl)-N-isopropylnicotinamide]
XRPD result after slurry ([1]; Acetone/heptane (1:4), 50° C., 1 day): Form A | XRPD result after slurry ([1]; Acetone/heptane (1:4), room temperature, 4 days): Form A | XRPD result after slurry ([1]; EtOAc, 50° C., 1 day): Form A | XRPD result after slurry ([1]; Heptane, 50° C., 1 day): Form A | XRPD result after slurry ([1]; IPAc, 50° C., 1 day): Form A | XRPD result after slurry ([1]; Isobutanol, 50° C., 1 day): Form A | XRPD result after slurry ([1]; Isobutanol, room temperature, three days (footnote *)): Form A* | XRPD result after slurry ([1]; MTBE, 50° C., 1 day): Form A | XRPD result after slurry ([1]; MTBE, room temperature, 4 days): Form A | XRPD result after slurry ([1]; MeCN, 50° C., 1 day): Form A | XRPD result after slurry ([1]; MeCN, room temperature, 4 days): Form A | XRPD result after slurry ([1]; MeOH/water (1:4), 50° C., 1 day): mixture of the Form B of the hemi-fumarate salt of the compound of formula (I) (Form B) and the free base Form of the compound of formula (I) (FBF) | XRPD result after slurry ([1]; Toluene, 50° C., 1 day): Form A | XRPD result after slurry ([1]; Water, 50° C., 1 day): mixture of the Form B of the hemi-fumarate salt of the compound of formula (I) (Form B) and the free base Form of the compound of formula (I) (FBF) | Crystallinity after manual grinding ([2]; grinding for five minutes): became low | XRPD form after manual grinding ([2]; ground for about two and five minutes manually): remained unchanged and no new form was obtained by grinding | pH of the filtrate ([3]; FaSSIF, 0.5 hours): 6.39 | pH of the filtrate ([3]; FaSSIF, 2 hours): 6.36 | XRPD of the filter cake ([3]; FaSSIF): exhibited dissociation into the free base Form | XRPD of the filter cake ([3]; FaSSIF, listed as Form A of the Hemi-Fumarate Salt): Changed | pH of the filtrate ([3]; FaSSIF, 24 hours): 5.57 | pH of the filtrate ([3]; FeSSIF, 0.5 hours): 5.14 | pH of the filtrate ([3]; FeSSIF, 2 hours): 4.88 | XRPD of the filter cake ([3]; FeSSIF): exhibited dissociation into the free base Form | XRPD of the filter cake ([3]; FeSSIF, listed as Form A of the Hemi-Fumarate Salt): Changed | pH of the filtrate ([3]; FeSSIF, 24 hours): 4.71 | Solubility comparison between media ([3]; SGF vs FeSSIF, FaSSIF and water): more soluble in SGF than in FeSSIF, FaSSIF, and water | pH of the filtrate ([3]; SGF, 0.5 hours): 1.12 | pH of the filtrate ([3]; SGF, 2 hours): 1.10 | XRPD of the filter cake ([3]; SGF): No XRPD pattern change was observed | pH of the filtrate ([3]; SGF, 24 hours): 1.36 | pH of the filtrate ([3]; Water, 0.5 hours): 3.77 | pH of the filtrate ([3]; Water, 2 hours): 2.97 | XRPD of the filter cake ([3]; Water): exhibited dissociation into the free base Form | XRPD of the filter cake ([3]; Water, listed as Form A of the Hemi-Fumarate Salt): Changed | pH of the filtrate ([3]; Water, 24 hours): 2.91 | solubility at 24 h ([3]; pH 1.36, simulated gastric fluid, thermodynamic from solid, SGF, 24 hours): 4.37 mg/mL | solubility at 24 h ([3]; pH 2.91, thermodynamic from solid, Water, 24 hours): 0.081 mg/mL | solubility at 2 h ([3]; pH 2.97, thermodynamic from solid, Water, 2 hours): 0.081 mg/mL | solubility at 0.5 h ([3]; pH 3.77, thermodynamic from solid, Water, 0.5 hours): 0.01 mg/mL | solubility at 24 h ([3]; pH 4.71, thermodynamic from solid, FeSSIF, 24 hours): 0.041 mg/mL | solubility at 2 h ([3]; pH 4.88, thermodynamic from solid, FeSSIF, 2 hours): 0.149 mg/mL | solubility at 0.5 h ([3]; pH 5.14, thermodynamic from solid, FeSSIF, 0.5 hours): 0.214 mg/mL | solubility at 24 h ([3]; pH 5.57, thermodynamic from solid, FaSSIF, 24 hours): 0.029 mg/mL | solubility at 2 h ([3]; pH 6.36, thermodynamic from solid, FaSSIF, 2 hours): 0.016 mg/mL | solubility at 0.5 h ([3]; pH 6.39, thermodynamic from solid, FaSSIF, 0.5 hours): 0.022 mg/mL | solubility at 0.5 h ([3]; simulated gastric fluid, thermodynamic from solid, SGF, 0.5 hours): 4.29 mg/mL | solubility at 2 h ([3]; simulated gastric fluid, thermodynamic from solid, SGF, 2 hours): 4.23 mg/mL | Physical stability (form by XRPD) [4]: No form change was detected | Purity (%) - 8 days ([5]; 40° C. (75% RH), HPLC): 99.86% | Physical and chemical stability ([5]; 40° C. (75% RH)): physically and chemically stable | XRPD - 29 days ([5]; 40° C. (75% RH)): No Change | Purity (%) - 29 days ([5]; 40° C. (75% RH), HPLC): 99.92% | Purity (%) - 8 days ([5]; 60° C., HPLC): 99.86% | Physical and chemical stability ([5]; 60° C.): physically and chemically stable | XRPD - 29 days ([5]; 60° C.): No Change | Purity (%) - 29 days ([5]; 60° C., HPLC): 99.91% | Purity (%) ([5]; Starting material (before storage), HPLC): 99.87% | Crystal form after DVS analysis [6]: did not change | Hygroscopicity (DVS) ([6]; 25° C.): slightly hygroscopic | Water uptake (DVS) ([6]; at 80% RH, 25° C.): 0.66% | XRPD result after slurry ([7]; Heptane): Form A* | XRPD result after slurry ([7]; IPAc): Form A* | XRPD result after slurry ([7]; Toluene): Form A*
